# Data from patent US20260137701A1, “CHOLESTENOIC ACID (CA) AND A SULFATED DERIVATIVE THEREOF, 3[BETA]-SULFATE-5-CHOLESTENOIC ACID (CA3S), AS ENDOGENOUS EPIGENETIC REGULATORS” (priority 2022, published 2026).
# Experiments:
# recombinant DNMT1 = recombinant DNMT1 (Homo sapiens, UniProt P26358); assay: DNMT1 enzyme kinetic (activity) assay, 3H-SAM filter; type: biochemical
# Experimental: (§1) The enzyme kinetic studies were carried out by Reaction Biology Company. For the DNMT1 activity assay, the substrate solution, 0.001 mg/ml Poly(dI-dC): Poly(dI-dC) in 50 mM Tris-HCl, pH 7.5, 50 mM NaCl, 5 mM EDTA, 5 mM DTT, 1 mM PMSF, 5% glycerol, 0.01% Brij™35, 1% DMSO was used. For the DNMT3a/3b activity assay, 0.0075 mg/ml Lambda DNA in 50 mM Tris-HCl, pH 7.5, 50 mM NaCl, 5 mM EDTA, 5 mM DTT, 1 mM PMSF, 5% glycerol, 1% DMSO, was used. The indicated DNMT1, DNMT3a and DNMT3b were added to the appropriate substrate solution and gently mixed. Amounts of CA ranging from 5.08E-09 to 0.0001 M in DMSO were added to the reaction mixture by using Acoustic Technology (Echo® 550, LabCyte Inc. Sunnyvale, CA). The mixtures were first incubated for 15 min, then ^3H-SAM was added to the reaction mixture to initiate the reaction, and the mixture was incubated for 60 min at 30° C. Following incubation, the reaction mixture was finally transferred to filter-paper for detection of radioactivity counts.
# recombinant DNMT3a = recombinant DNMT3a (Homo sapiens, UniProt Q9Y6K1); assay: DNMT3a enzyme kinetic (activity) assay, 3H-SAM filter; type: biochemical; conditions: read-out: IC50, inhibits DNMT3a activity
# recombinant DNMT3a, sequence (Q9Y6K1 whole entry, looked up): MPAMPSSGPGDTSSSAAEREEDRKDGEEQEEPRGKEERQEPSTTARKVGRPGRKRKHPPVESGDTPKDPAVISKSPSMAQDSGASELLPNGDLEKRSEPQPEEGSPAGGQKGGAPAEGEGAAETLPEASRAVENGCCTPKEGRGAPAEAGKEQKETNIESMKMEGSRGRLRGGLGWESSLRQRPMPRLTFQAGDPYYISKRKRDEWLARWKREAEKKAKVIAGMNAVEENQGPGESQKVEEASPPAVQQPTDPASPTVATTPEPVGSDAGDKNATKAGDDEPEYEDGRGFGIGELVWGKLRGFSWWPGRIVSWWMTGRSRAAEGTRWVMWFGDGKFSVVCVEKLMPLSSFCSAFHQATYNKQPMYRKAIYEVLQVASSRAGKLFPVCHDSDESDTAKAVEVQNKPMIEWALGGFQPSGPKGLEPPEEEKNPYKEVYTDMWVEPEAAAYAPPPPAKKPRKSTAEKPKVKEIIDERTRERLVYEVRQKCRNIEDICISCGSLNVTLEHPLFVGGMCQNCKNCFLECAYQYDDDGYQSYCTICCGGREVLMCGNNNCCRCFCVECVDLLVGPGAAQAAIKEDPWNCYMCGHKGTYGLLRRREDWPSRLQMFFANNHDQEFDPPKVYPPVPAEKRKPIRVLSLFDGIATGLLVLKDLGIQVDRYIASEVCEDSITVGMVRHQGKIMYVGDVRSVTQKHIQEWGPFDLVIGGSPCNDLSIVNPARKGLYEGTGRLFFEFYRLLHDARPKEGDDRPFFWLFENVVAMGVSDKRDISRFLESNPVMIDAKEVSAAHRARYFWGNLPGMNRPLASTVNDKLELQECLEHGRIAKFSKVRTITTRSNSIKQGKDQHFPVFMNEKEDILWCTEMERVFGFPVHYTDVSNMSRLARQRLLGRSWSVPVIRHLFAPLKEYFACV
# Experimental: as §1
# recombinant DNMT3b = recombinant DNMT3b (Homo sapiens, UniProt Q9UBC3); assay: DNMT3b enzyme kinetic (activity) assay, 3H-SAM filter; type: biochemical; conditions: read-out: IC50, inhibits DNMT3b activity
# Experimental: as §1
# HepG-2 cells [1] = assay: LC-MS/MS determination of CA levels in total cellular and nuclear extracts; type: in vitro ADME, human; conditions: addition of 20 μM CA
# Experimental: HepG-2 cells, 5,000 cells/cm^2, were cultured in DMEM (HG, 10% FBS) medium for 3 days, and then treated with 20 μM of CA for 0, 3, 6, 12, and 24 hours. After treatment, the cells were washed twice with cold PBS then harvested with 1 ml PBS. For total cell extraction, the cells were collected by centrifuge at 1,000 rpm for 5 min. For nuclei extraction, the nuclear fractions were extracted according to the manufacture's instructions for NE-PER™ Nuclear and Cytoplasmic Extraction Reagents (Thermo Scientific, Rockford, IL). Total proteins in the cell and nuclear fractions were digested with proteinase K (2 mg/ml), incubated at 50° C. with shaking for 3 hours. The total lipids in the total cell and nuclear fractions were extracted with 10 volumes of chloroform:methanol 1:1, vortexed, and sonicated for 30 mins. The extracts were centrifuged at 1,000 rpm for 5 min, the supernatants were dried up by stream nitrogen, then dissolved with 200 μl of methanol, 2 μl of the extracts were used for the CA analysis by LC-MS/MS system as below.
# Shimadzu LCMS-8600 CL LC-MS system equipped with electrospray ionization (ESI) were used to determine the CA levels. Data were collected and processed using Shimadzu Lab solutions software. Hypersil Gold™ C18 (50 mm×2.1 mm inner diameter, particle size 2.6 μm, Thermo Scientific) was maintained at 40° C. during the analysis. […]
# NAFLD mouse model = assay: western diet-induced NAFLD mice model, health and serum enzymes; type: in vivo; conditions: 10 mg/kg CA injection, two weeks
# Excerpt: The animal studies were approved by the Institutional Animal Care and Use Committee of McGuire Veterans Affairs Medical Center and conducted in accordance with the Declaration of Helsinki, the Guide for the Care and Use of Laboratory Animals, and all applicable regulations. In this study, a western diet-induced nonalcoholic fatty liver disease (NAFLD) mice model was used. To create the model, eight-week-old C57BL/6J female mice were purchased from the Jackson Laboratory and fed a western diet (TD.88137, Envigo) along with high glucose/fructose water (WDSW) containing 23.1 g/L fructose and 18.9 g/L glucose for 12 weeks. After establishing the model, the mice were separated into three groups based on their weight. For the control mice in each group, they received intravenous injection (IV) with vehicle (DMSO). In contrast, the treatment group mice were intravenously injected with 10 mg/kg of CA (dissolved in DMSO) with a total volume of less than 100 μl. During the treatment period, injections were administered every two days. All mice were housed under identical conditions in an aseptic facility with a 12-hour light/12-hour dark cycle and provided with free access to water and food (WDSW). Before scarification, the mice fasted overnight. Blood samples were collected, and the serum enzymatic activities of alkaline phosphatase (ALK), alanine aminotransferase (ALT), and aspartate aminotransferase (AST) were measured in the clinical laboratory at McGuire Veterans Affairs Medical Center.
# HepG-2 cells [2] = assay: RT-qPCR of genes of lipid metabolism and calcium signaling; type: cell-based, human; conditions: concentration and time dependent
# Experimental: After culturing HepG-2 cells in DMEM medium with HG for 72 hours followed by treating with 20 μM CA for 0, 3, 6, 12, and 24 hours, genomic DNA from 5×10^7 cells were extracted using QIAamp® DNA Mini Kit (QIAGEN, Hilden, Germany). Each sample, 6 μg, was sent to CD Genomics Co., Ltd (New York, USA) for analysis of WGBS. Total RNA was isolated using the Promega SV total RNA isolation system (Madison, WI, USA) with DNase treatment. Each sample, 2 μg, were sent to CD Genomics Co., Ltd (New York, USA) for analysis of RNA sequencing. The same samples, 2 μg, was used for the first-strand cDNA synthesis as recommended by the manufacturer (Invitrogen, Carlsbad, CA). RT-qPCR was performed using SYBR Green as the indicator on ABI 7500 Fast Real-Time PCR System (Applied Biosystems, Foster City, CA). Amplifications of j-actin or GAPDH were used as internal controls. Relative messenger RNA (mRNA) expression was quantified with the comparative cycle threshold (Ct) method using a sutiable primer set and was expressed as 2-ΔΔCt as described previously.
# HepG-2 cells [3] = assay: HepG-2 cell death; type: cell-based, human
# Hep G2 cells = type: in vitro ADME, human; conditions: human, 24 h
# Excerpt: Mitochondrial oxysterols, including cholestenoic acid (CA), 25-hydroxycholesterol (25HC), and 27-hydroxycholesterol (27HC), are potent regulators involved in important biological events such as lipid metabolism and inflammatory responses. However, their intracellular catabolic pathways have not been fully explored. In this study, we investigated the metabolic pathways of these oxysterols and their roles in the communication between hepatocytes and macrophages.
# [4] = system: normal primary human hepatocytes (PHH)
# recombinant DNMT1, sequence (P26358 whole entry): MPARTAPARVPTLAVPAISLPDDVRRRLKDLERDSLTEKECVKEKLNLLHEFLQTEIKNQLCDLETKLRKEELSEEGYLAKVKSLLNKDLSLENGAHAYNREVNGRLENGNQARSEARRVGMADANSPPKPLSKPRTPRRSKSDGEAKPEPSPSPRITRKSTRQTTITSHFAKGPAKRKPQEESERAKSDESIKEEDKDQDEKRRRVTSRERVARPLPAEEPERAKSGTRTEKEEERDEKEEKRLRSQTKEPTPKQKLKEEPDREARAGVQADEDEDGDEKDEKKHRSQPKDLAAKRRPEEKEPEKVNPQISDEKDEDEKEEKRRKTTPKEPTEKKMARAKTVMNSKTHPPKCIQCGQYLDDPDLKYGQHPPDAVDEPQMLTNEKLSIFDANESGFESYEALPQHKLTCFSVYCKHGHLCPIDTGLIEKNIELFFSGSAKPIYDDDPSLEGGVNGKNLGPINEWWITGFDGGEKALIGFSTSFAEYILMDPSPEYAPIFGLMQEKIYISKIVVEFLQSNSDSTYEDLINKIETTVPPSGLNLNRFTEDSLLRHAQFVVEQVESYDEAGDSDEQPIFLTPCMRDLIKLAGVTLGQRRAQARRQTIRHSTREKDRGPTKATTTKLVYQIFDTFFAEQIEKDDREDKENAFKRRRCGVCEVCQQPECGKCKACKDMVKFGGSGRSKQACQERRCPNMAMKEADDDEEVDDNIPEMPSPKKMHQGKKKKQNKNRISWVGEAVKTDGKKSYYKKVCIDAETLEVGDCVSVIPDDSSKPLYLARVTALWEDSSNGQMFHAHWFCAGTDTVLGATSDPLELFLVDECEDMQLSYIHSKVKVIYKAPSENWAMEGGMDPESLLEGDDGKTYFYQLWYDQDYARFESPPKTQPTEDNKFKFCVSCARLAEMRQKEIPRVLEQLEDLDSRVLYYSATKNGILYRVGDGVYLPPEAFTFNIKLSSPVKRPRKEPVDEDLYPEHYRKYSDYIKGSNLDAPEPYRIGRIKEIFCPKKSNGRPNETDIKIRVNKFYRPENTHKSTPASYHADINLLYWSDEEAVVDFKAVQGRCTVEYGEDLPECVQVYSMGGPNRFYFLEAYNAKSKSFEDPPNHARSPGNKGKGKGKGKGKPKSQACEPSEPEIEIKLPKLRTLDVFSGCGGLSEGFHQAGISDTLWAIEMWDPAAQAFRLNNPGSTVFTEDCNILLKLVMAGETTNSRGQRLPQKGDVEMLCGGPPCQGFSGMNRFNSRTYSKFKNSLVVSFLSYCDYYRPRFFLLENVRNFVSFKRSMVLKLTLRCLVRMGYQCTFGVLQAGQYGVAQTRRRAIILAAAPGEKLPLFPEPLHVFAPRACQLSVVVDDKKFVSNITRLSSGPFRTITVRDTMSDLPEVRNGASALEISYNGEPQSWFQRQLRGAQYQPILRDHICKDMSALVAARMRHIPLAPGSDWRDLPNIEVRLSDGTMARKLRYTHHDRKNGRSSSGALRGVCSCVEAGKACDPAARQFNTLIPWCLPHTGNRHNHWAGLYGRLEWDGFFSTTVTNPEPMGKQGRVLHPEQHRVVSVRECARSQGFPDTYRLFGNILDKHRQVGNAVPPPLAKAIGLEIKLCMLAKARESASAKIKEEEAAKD
smiles,measurement,setting,value
"CC(CCC[C@@H](C)[C@H]1CC[C@H]2[C@@H]3CC=C4C[C@@H](O)CC[C@]4(C)[C@H]3CC[C@]12C)C(=O)O (stereo partly drawn) [CA, 3β-hydroxy-5-cholestenoic acid]",IC50,"recombinant DNMT1; at higher concentration, read-out: IC50, inhibits DNMT1 activity",9.13 µM
same,EC50,"recombinant DNMT1; at low concentration, mean±SD, n=3, read-out: EC50, activates DNMT1",1.99 µM
same,IC50,recombinant DNMT3a,8.41 µM
same,IC50,recombinant DNMT3b,4.89 µM
same,increase of CA in cellular nuclei,HepG-2 cells [1]; 6 hours,4 fold
same,increase of intracellular CA levels,HepG-2 cells [1]; 12 hours,85 fold
same,"in vivo toxicity, health of mice",NAFLD mouse model,remained in good health
same,serum activity of ALK,NAFLD mouse model,significant decrease
same,serum activity of ALT,NAFLD mouse model,significant decrease
same,levels of mRNA encoding FAS,HepG-2 cells [2]; 0-20 μM CA 6 hours,decreased
same,levels of mRNA encoding HMGR,HepG-2 cells [2]; 0-20 μM CA 6 hours,decreased
same,levels of mRNA encoding PCSK9,HepG-2 cells [2]; 0-20 μM CA 6 hours,decreased
same,expression of CACNA1D,HepG-2 cells [2],up-regulated
same,expression of CACNA1H,HepG-2 cells [2],up-regulated
same,expression of CAMK2B,HepG-2 cells [2],up-regulated
same,HepG-2 cell death,HepG-2 cells [3],induces HepG-2 cell death
same,maximum of novel molecular ion m/z 495 (CA3S) formed from CA,Hep G2 cells,90%
same,death of normal primary human hepatocytes,[4],not the death
